The text below walks through data of ChEMBL document CHEMBL4028806, “Modulators of Sphingosine-1-phosphate Pathway Biology: Recent Advances of Sphingosine-1-phosphate Receptor 1 (S1P1) Agonists and Future Perspectives” (J Med Chem, 2017).

The subject of data set [1] is Mus musculus. Kind of data set: Reduction in peripheral lymphocyte level in mouse administered iv measured 3 hrs post dose. In kind it is functional.
Data set [2] addresses T1, Sphingosine 1-phosphate receptor 1 (Homo sapiens, UniProt P21453). Kind of data set: Displacement of [33P]-S1P from S1P1 receptor (unknown origin) expressed in CHOK1 cells after 60 mins by microbeta scintillation proximity assay. In kind it is cell-based. (In a scintillation proximity assay essentially only radioactivity close to the scintillant gives light.)
The target in data set [3] is T2, Sphingosine 1-phosphate receptor 3 (Homo sapiens, UniProt Q99500). Kind of data set: Displacement of [33P]-S1P from S1P3 receptor (unknown origin) expressed in CHOK1 cells after 60 mins by microbeta scintillation proximity assay. In kind it is cell-based.
T2 sequence (Q99500 whole entry): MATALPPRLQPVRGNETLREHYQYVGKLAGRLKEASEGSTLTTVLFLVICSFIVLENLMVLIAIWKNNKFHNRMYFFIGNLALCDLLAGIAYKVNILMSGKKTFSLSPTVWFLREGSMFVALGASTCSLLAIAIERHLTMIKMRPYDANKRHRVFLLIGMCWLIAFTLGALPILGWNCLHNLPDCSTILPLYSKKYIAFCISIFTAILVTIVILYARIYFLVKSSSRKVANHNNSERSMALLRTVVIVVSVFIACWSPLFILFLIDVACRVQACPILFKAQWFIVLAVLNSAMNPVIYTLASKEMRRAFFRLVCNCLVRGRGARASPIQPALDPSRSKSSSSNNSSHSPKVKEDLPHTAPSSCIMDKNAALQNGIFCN
Data set [4] has as its system Trachea. Description: Induction of tracheal constriction in Wistar rat at 10 uM.
Data set [5] deals with Trachea. Kind of data set: Induction of tracheal constriction in Wistar rat at 1 uM.
The test system of data set [6] is Mus musculus. Kind of data set: Reduction in peripheral lymphocyte level in Swiss mouse at 10 mg/kg, po measured 24 hrs post dose. In kind it is functional. Also noted: scale not given: the % may be the effect or the level left.
Data set [7] is filed under the species Homo sapiens. Kind of data set: Toxicity in human assessed as reduction in heart rate at 10 mg measured on day 1. The following applies: in vivo.
In data set [8] the target is T2, Sphingosine 1-phosphate receptor 3. Description: Displacement of [33P]-S1P from human S1P3 receptor expressed in CHO cell membranes.
Data set [9] deals with T1, Sphingosine 1-phosphate receptor 1. Kind of data set: Displacement of [33P]-S1P from human S1P1 receptor expressed in CHO cell membranes.
Another data set has as its system Rattus norvegicus. Kind of data set: Reduction in peripheral lymphocyte level in rat at 10 mg/kg, po measured 6 hrs post dose. In kind it is functional. More on the design: scale not given: the % may be the effect or the level left.
Data set [10] is described as follows: Half life in po dosed Sprague-Dawley rat. In kind it is ADME, organism-based. The following applies: in vivo.
A short description of data set [11]: Half life in iv dosed Sprague-Dawley rat. In kind it is ADME, organism-based. The following applies: in vivo.
Data set [12] concerns Mus musculus. Kind of data set: Reduction in peripheral lymphocyte level in mouse administered po measured 3 hrs post dose. In kind it is functional.
The nature of data set [13]: Oral bioavailability in mouse. In kind it is ADME, organism-based. Particulars: in vivo.
The species entered for data set [14] is Homo sapiens. Kind of data set: Toxicity in human assessed as reduction in heart rate at 10 mg measured 2 hrs post dose. The following applies: in vivo.
Data set [15] deals with Mus musculus. Description: Immunosuppressive activity in BALB/c mouse assessed as reduction in peripheral blood lymphocytes at 30 mg/kg, ip measured 4 days post dose. In kind it is functional. More on the design: scale not given: the % may be the effect or the level left.
For data set [16], the target named is T1, Sphingosine 1-phosphate receptor 1. Kind of data set: Agonist activity at human S1P1 receptor expressed in CHO cell membranes after 45 mins by [35S] GTPgammaS binding based scintillation counting analysis. In kind it is functional. (In general: Binding of GTPγS marks nucleotide exchange on a G protein.)
Data set [17] concerns the target T2, Sphingosine 1-phosphate receptor 3. Description: Agonist activity at human S1P3 receptor expressed in CHO cell membranes after 45 mins by [35S] GTPgammaS binding based scintillation counting analysis. In kind it is functional.
The target is the same in data set [18]. Kind of data set: Displacement of [33P]-S1P from S1P3 receptor (unknown origin) expressed in CHO cell membranes.
In data set [19] the target is T1, Sphingosine 1-phosphate receptor 1. Description: Displacement of [33P]-S1P from S1P1 receptor (unknown origin) expressed in CHO cell membranes.
The species entered for data set [20] is Homo sapiens. Description: Toxicity in human assessed as reduction in heart rate at 1.25 mg measured for 2 days. The following applies: in vivo, 48 h.
For data set [21], the species on record is Homo sapiens. Description: Toxicity in human assessed as reduction in heart rate measured every day for 9 days. Particulars: 216 h.

Structures are written as SMILES.

T1 sequence (P21453 whole entry): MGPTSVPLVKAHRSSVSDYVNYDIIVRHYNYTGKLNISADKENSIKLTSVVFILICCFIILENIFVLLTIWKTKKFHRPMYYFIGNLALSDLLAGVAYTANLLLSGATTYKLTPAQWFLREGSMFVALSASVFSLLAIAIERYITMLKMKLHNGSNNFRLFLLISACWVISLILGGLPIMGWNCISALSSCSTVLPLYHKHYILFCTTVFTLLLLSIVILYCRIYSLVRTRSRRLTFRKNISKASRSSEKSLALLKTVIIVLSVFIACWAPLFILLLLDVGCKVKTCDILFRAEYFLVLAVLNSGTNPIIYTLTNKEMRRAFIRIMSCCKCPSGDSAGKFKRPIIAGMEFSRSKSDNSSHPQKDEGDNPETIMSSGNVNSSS

As a reminder, the ED50 is the dose at which the effect has come halfway, by size or by number of responders. In turn, `CCCCCCCCc1ccc(CC[C@@H](N)C[C@H](O)P(=O)(O)O)cc1` yielded a median effective dose (ED50) in the data set on Mus musculus [1] of 0.15 mg/kg.

As a reminder, the Ki is the equilibrium dissociation constant of an inhibitor or competing ligand from its target. For the compound `COCc1cc(-c2nc(-c3ccc(-c4ccc(C(=O)O)c(F)c4)cc3)no2)ccc1-c1ccccc1C`, the Ki in data set [2] turned out to be 2.9 nM; in data set [3], 2200 nM.

With `CCc1cc(-c2noc(-c3cc(OC)nc(C(CC)CC)c3)n2)cc(C)c1OC[C@@H](O)CNC(=O)CO`, the Activity was 100% in the data set on Trachea [4] and below 5% in the data set with Trachea [5].

With `CCc1cc(-c2noc(-c3cc(CC(C)C)nc(OC)c3)n2)cc(C)c1OC[C@@H](O)CO`, the Activity is given as 124% in the data set with Trachea [4] and below 5% in the data set with Trachea [5].

In the data set with Trachea [5], `CCc1cc(-c2noc(-c3cc(CC(C)C)nc(OC)c3)n2)cc(C)c1OC[C@@H](O)CNC(=O)CO` yielded an Activity of 133%.

Turning to `CCc1cc(-c2noc(-c3cc(OC)nc(C(CC)CC)c3)n2)cc(C)c1OC[C@@H](O)CO`, the results for the Activity with Trachea [4] and in the data set on Trachea [5] were 24% and below 5%, respectively.

In turn, `O=C(O)C1(C(=O)O)CC(NCc2ccc(-c3noc(-c4ccc(-c5ccccc5)c(F)c4)n3)cc2)C1` displayed an Activity with Mus musculus [6] of 86%.

Turning to `CCC/N=C1\S/C(=C\c2ccc(OC[C@H](O)CO)c(Cl)c2)C(=O)N1c1ccccc1C` [PONESIMOD], the Activity in the data set filed under Homo sapiens [7] was 10 to 12 bpm.

The IC50 is the midpoint of a concentration-inhibition curve. In the case of `CCCCCCCCc1ccc(CNCCCC(=O)O)cc1`, the half-maximal inhibitory concentration (IC50) in data set [8] is 1200 nM; in data set [9], 7.7 nM.

As for `COCc1cc(-c2nc(-c3cccc(OCC(=O)O)c3)no2)ccc1-c1ccccc1C`, the Ki stood at 0.8 nM in data set [2] and 1040 nM in data set [3].

Regarding `CCc1cc(-c2nnc(-c3sc(C)c4c3C[C@@H]3[C@H]4C3(C)C)o2)cc(C)n1`, in the data set on Rattus norvegicus, the Activity worked out at 77%.

Usually half-life stands for how long it takes for the measured level to halve. In the case of `CC(C)Cc1ccc(-c2nc(-c3ccc(CN4CC(C(=O)O)C4)c(F)c3)no2)cc1` [ICANBELIMOD], the half-life in data set [10] and in [11] was 5.5 h in each case.

The compound `CCCCCCCCc1ccc(CCC(N)COP(=O)(O)O)cc1` (centres undefined) returned an ED50 with Mus musculus [1] of 0.06 mg/kg.

Broadly, the bioavailability is dose-corrected exposure relative to a reference, in per cent. Turning to `CCCCCCCCc1ccc(CN2CC(C(=O)O)C2)cc1`, the 50% inhibitory concentration (IC50) in data set [8] is 4900 nM; in data set [9], 18 nM. The compound also gave a 50% effective dose (ED50) in the data set with Mus musculus [12] of 5.2 mg/kg. This compound also showed a bioavailability in data set [13] above 70%.

With `CCCCCCCCc1ccc(CNCCCP(C)(=O)O)cc1`, the 50% inhibitory concentration (IC50) in [8] stood at 100 nM; in [9], 12 nM.

`CCCCCCCCc1ccc(CC[C@@H](N)CCP(=O)(O)O)cc1`: the half-inhibitory concentration (IC50) worked out at 280 nM in data set [8] and 8.4 nM in data set [9].

As for `CCc1cc(/C(C)=N/OCc2ccc(C3CCCCC3)c(C(F)(F)F)c2)ccc1CN1CC(C(=O)O)C1` [SIPONIMOD], the Activity in the data set filed under Homo sapiens [14] is listed as 16 bpm.

As to `CCCCCCCCc1ccc2c(c1)CC(N)(CO)CC2` (centres undefined), the Activity in the data set with Mus musculus [15] worked out at 64%.

For `CC(C)Cc1ccc(-c2nc(-c3ccc(CN4CC(C(=O)O)C4)cc3)no2)cc1`, the half-life in [10] was 11 h; in data set [11], 9 h.

The EC50 is the concentration at which the effect is half-maximal. For the compound `N#CC1(NC(=O)[C@@H](O)c2ccc(-c3noc(-c4onc(-c5ccccc5)c4C(F)(F)F)n3)cc2)CC1`, the EC50 is 15 nM in data set [16] and above 31000 nM in data set [17].

For `CCCCCCCCc1ccc(CCC(N)(CO)CCP(=O)(O)O)cc1` (centres undefined), in the data set on Mus musculus [1], it took a dose of 2.35 mg/kg to reach the 50% effect level (ED50). Further, the results for the IC50 in [18] and in data set [19] were 7 nM and 6 nM, respectively.

On to `CCCCCCCCc1ccc(CCC(N)(CO)CO)cc1` [FINGOLIMOD], for which the figures for the Activity in the data set listed under Homo sapiens [20] and in the data set listed under Homo sapiens [21] were 8 to 11 bpm and 1 to 2 bpm, respectively.
